Assay results published in patent publication US12281102B2, “Inhibitors of APOL1 and methods of using same” (Vertex Pharmaceuticals Incorporated, priority 2020, dated 2025).
Read-outs that look alike come from different tables or passages of the source.

Biological target: T1, G1 APOL1 (Homo sapiens, UniProt O14791, I384M/S342G)
T1 construct: expressed in transfected cells
T1 sequence (O14791 28-398 S342G/I384M): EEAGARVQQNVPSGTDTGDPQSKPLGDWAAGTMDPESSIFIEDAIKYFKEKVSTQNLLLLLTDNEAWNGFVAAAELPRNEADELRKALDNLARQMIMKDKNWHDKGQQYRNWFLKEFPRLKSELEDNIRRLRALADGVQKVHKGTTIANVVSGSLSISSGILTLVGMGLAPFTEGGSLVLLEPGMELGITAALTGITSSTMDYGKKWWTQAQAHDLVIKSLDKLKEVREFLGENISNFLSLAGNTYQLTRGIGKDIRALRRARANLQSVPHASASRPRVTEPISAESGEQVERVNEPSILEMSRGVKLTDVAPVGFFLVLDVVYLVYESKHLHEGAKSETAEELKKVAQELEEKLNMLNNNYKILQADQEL
Experiment: Acute APOL1 Thallium Assay with inducible stable clones of HEK 293 cells
Type: cell-based
Details: HEK 293 T-Rex inducible stable clone expressing G1 APOL1
Method in brief: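 APOL1 pore function was measured as thallium influx, detected by a Tl+-sensitive fluorescent dye loaded as AM ester, on a FLIPR Tetra after Tl+ addition. Cells were HEK T-Rex G1 APOL1 clone DC3.25, 26,000 per well, induced with tetracycline at plating in Opti-MEM assay medium.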

[1] = read-out: Thallium Assay (IC50)

Compound	IC50 [1] [nM]	IC50 (Thallium Assay (IC50)) [nM]
CN(C)C(=O)CCC(=O)NC[C@H]1C[C@@H](c2c(-c3ccc(F)cc3)[nH]c3c(F)cc(F)cc32)C1 [Compound 454, N^1-(((1s,3s)-3-(5,7-difluoro-2-(4-fluorophenyl)-1H-indol-3-yl)cyclobutyl)methyl)-N^4,N^4-dimethylsuccinamide]	> 1000	–
NC(=O)CNS(=O)(=O)NC[C@H]1C[C@H](c2c(-c3ccc(F)cc3)[nH]c3c(F)cc(F)cc32)C1 [Compound 341]	250 to 1000	–
C[C@H](O)[C@H](CO)NS(=O)(=O)NC[C@H]1C[C@H](c2c(-c3ccc(F)cc3)[nH]c3c(F)cc(F)cc32)C1 [Compound 360]	> 1000	–
CNS(=O)(=O)NC[C@H]1C[C@H](c2c(-c3ccc(F)cc3)[nH]c3c(F)cc(F)cc32)C1 [Compound 354]	> 1000	–
CS(=O)(=O)CCC(=O)NC[C@H]1C[C@@H](c2c(-c3ccc(F)cc3)[nH]c3c(F)cc(F)cc32)C1 [Compound 262]	> 1000	–
O=C(Cn1cnnc1)N[C@H]1C[C@H](c2c(-c3ccc(F)cc3)[nH]c3c(F)cc(F)cc32)C1 [Compound 139]	> 1000	–
CC(C)(C)OC(=O)N1CC[C@H](O)[C@H]1C(=O)NC[C@H]1C[C@H](c2c(-c3ccc(F)cc3)[nH]c3c(F)cc(F)cc32)C1 [Compound 255]	> 1000	–
O=C(NC[C@H]1C[C@H](c2c(-c3ccc(F)cc3)[nH]c3c(F)cc(F)cc32)C1)C1CC(F)(F)CN1 (stereo partly drawn) [Compound 223]	250 to 1000	–
O=C(N[C@H]1C[C@H](c2c(-c3ccc(F)cc3)[nH]c3c(F)cc(F)cc32)C1)C(O)CO (stereo partly drawn) [Compound 96]	250 to 1000	–
NC(=O)CC(=O)NC1CC(Cc2c(-c3ccc(F)cc3)[nH]c3c(F)cc(F)cc23)C1 (stereo not drawn) [Compound 165]	> 1000	–
NC[C@]1(O)C[C@@H](c2c(-c3ccc(F)cc3)[nH]c3c(F)cc(F)cc32)C1 [Compound 430, (1s,3s)-1-(aminomethyl)-3-(5,7-difluoro-2-(4-fluorophenyl)-1H-indol-3-yl)cyclobutan-1-ol]	250 to 1000	–
CN1CCC(CC(=O)N[C@H]2C[C@H](c3c(-c4ccc(F)cc4)[nH]c4c(F)cc(F)cc43)C2)CC1 [Compound 117]	> 1000	–
O=C(NC[C@H]1C[C@H](c2c(-c3ccc(F)cc3)[nH]c3c(F)cc(F)cc32)C1)c1ccc(=O)[nH]c1 [Compound 304]	> 1000	–
CC(=O)NC[C@]1(O)C[C@@H](c2c(-c3ccc(F)cc3)[nH]c3c(F)cc(F)cc32)C1 [Compound 431, N-(((1s,3s)-3-(5,7-difluoro-2-(4-fluorophenyl)-1H-indol-3-yl)-1-hydroxycyclobutyl)methyl)acetamide]	> 1000	–
O=C(CC1CCOCC1)NC[C@H]1C[C@@H](c2c(-c3ccc(F)cc3)[nH]c3c(F)cc(F)cc32)C1 [Compound 325]	> 1000	–
CS(=O)(=O)CCCC(=O)NC[C@H]1C[C@@H](c2c(-c3ccc(F)cc3)[nH]c3c(F)cc(F)cc32)C1 [Compound 308]	> 1000	–
O=S(=O)(NC[C@H]1C[C@H](c2c(-c3ccc(F)cc3)[nH]c3c(F)cc(F)cc32)C1)N[C@@H](CO)C(F)F [Compound 347]	> 1000	–
N[C@H]1C[C@@H](Cc2c(-c3ccc(F)cc3)[nH]c3c(F)cc(F)cc23)C1 [Compound 158, cis-3-[[5,7-difluoro-2-(4-fluorophenyl)-1H-indol-3-yl]methyl]cyclobutanamine]	< 250	–
CN(C)C(=O)CCC(=O)N[C@H]1C[C@@H](c2c(-c3ccc(F)cc3)[nH]c3c(F)cc(F)cc32)C1 [Compound 60]	> 1000	–
O=C(CO)NC[C@H]1C[C@H](c2c(-c3ccc(F)cc3)[nH]c3c(F)cc(F)cc32)C1 [Compound 203]	< 250	–
O=C(NC[C@H]1C[C@H](c2c(-c3ccc(F)cc3)[nH]c3c(F)cc(F)cc32)C1)C1(O)COC1 [Compound 221]	250 to 1000	–

Compound	IC50 [1] [nM]	IC50 (Thallium Assay (IC50)) [nM]
CC1(C)CCC(C(=O)N[C@H]2C[C@H](c3c(-c4ccc(F)cc4)[nH]c4c(F)cc(F)cc43)C2)N1 (stereo partly drawn) [Compound 127]	> 1000	–
O=C1CC[C@H](C(=O)NC[C@H]2C[C@H](c3c(-c4ccc(F)cc4)[nH]c4c(F)cc(F)cc43)C2)N1 [Compound 268]	> 1000	–
NC(=O)C(=O)NC[C@H]1C[C@@H](c2c(-c3ccc(F)cc3)[nH]c3c(F)cc(F)cc32)C1 [Compound 453, N^1-(((1s,3s)-3-(5,7-difluoro-2-(4-fluorophenyl)-1H-indol-3-yl)cyclobutyl)methyl)oxalamide]	> 1000	–
O=C(NC[C@H]1C[C@H](c2c(-c3ccc(F)cc3)[nH]c3c(F)cc(F)cc32)C1)[C@H]1NCC[C@@H]1O [Compound 222]	250 to 1000	–
NC(=O)C(=O)N1CC(Cc2c(-c3ccc(F)cc3)[nH]c3c(F)cc(F)cc23)C1 [Compound 455, 2-[3-[[5,7-difluoro-2-(4-fluorophenyl)-1H-indol-3-yl]methyl]azetidin-1-yl]-2-oxo-acetamide]	250 to 1000	–
Fc1ccc(-c2[nH]c3c(F)cc(F)cc3c2C2CC(NC3COC3)C2)cc1 (stereo not drawn) [Compound 22]	> 1000	–
O=C(CO)N[C@H]1C[C@@H](c2c(-c3ccc(F)cc3)[nH]c3c(F)cc(F)cc32)C1 [Compound 29, N-((1s,3s)-3-(5,7-difluoro-2-(4-fluorophenyl)-1H-indol-3-yl)cyclobutyl)-2-hydroxyacetamide]	250 to 1000	–
CC(=O)NS(=O)(=O)NC[C@H]1C[C@H](c2c(-c3ccc(F)cc3)[nH]c3c(F)cc(F)cc32)C1 [Compound 371]	250 to 1000	–
CC(C)(C)OC(=O)N1CCC[C@H]1C(=O)NC[C@H]1C[C@H](c2c(-c3ccc(F)cc3)[nH]c3c(F)cc(F)cc32)C1 [Compound 217]	–	250 to 1000
CCS(=O)(=O)NC[C@H]1C[C@H](c2c(-c3ccc(F)cc3)[nH]c3c(F)cc(F)cc32)C1 [Compound 413]	250 to 1000	–
O=C(NC[C@H]1C[C@H](c2c(-c3ccc(F)cc3)[nH]c3c(F)cc(F)cc32)C1)C(F)F [Compound 200]	< 250	–
O=C(NC[C@H]1C[C@H](c2c(-c3ccc(F)cc3)[nH]c3c(F)cc(F)cc32)C1)c1n[nH]c(=O)[nH]1 [Compound 290]	> 1000	–
O=C(NC[C@H]1C[C@H](c2c(-c3ccc(F)cc3)[nH]c3c(F)cc(F)cc32)C1)c1ccncn1 [Compound 288]	> 1000	–
O=C1NCC[C@@H]1NC1CC(c2c(-c3ccc(F)cc3)[nH]c3c(F)cc(F)cc23)C1 (stereo partly drawn) [Compound 20, (3S)-3-[[3-[5,7-difluoro-2-(4-fluorophenyl)-1H-indol-3-yl]cyclobutyl]amino]pyrrolidin-2-one]	< 250	–
O=S(=O)(NCCO)NC[C@H]1C[C@H](c2c(-c3ccc(F)cc3)[nH]c3c(F)cc(F)cc32)C1 [Compound 339]	< 250	–
O=C(NC[C@H]1C[C@@H](c2c(-c3ccc(F)cc3)[nH]c3c(F)cc(F)cc32)C1)c1cn[nH]c1 [Compound 317]	> 1000	–
Cn1ccc(CC(=O)N[C@H]2C[C@H](c3c(-c4ccc(F)cc4)[nH]c4c(F)cc(F)cc43)C2)n1 [Compound 106]	250 to 1000	–
O=S(=O)(N[C@H]1C[C@H](c2c(-c3ccc(F)cc3)[nH]c3c(F)cc(F)cc32)C1)C1CCOCC1 [Compound 156]	> 1000	–
COCCC(=O)NC[C@H]1C[C@@H](c2c(-c3ccc(F)cc3)[nH]c3c(F)cc(F)cc32)C1 [Compound 209]	250 to 1000	–
NCC1CC(c2c(-c3ccc(C4CC4)cc3)[nH]c3ccc(F)cc23)C1 (stereo not drawn) [Compound 177]	> 1000	–
O=S(=O)(N[C@H]1C[C@H](c2c(-c3ccc(F)cc3)[nH]c3c(F)cc(F)cc32)C1)c1c[nH]cn1 [Compound 150]	250 to 1000	–
